ChEMBL document CHEMBL2346598, “Synthesis and pharmacological characterization of 2-(acylamino)thiophene derivatives as metabolically stable, orally effective, positive allosteric modulators of the GABAB receptor” (J Med Chem, 2013)
The source made the active and inactive calls. The rule behind the calls is not given here.

Tests used:
Rattus norvegicus [1] = species on record: Rattus norvegicus; assay: Positive allosteric modulation of GABAB receptor in rat cortical membranes assessed as potentiation of GABA-induced [35S]GTPgammaS binding after 30 mins by liquid scintillation counting analysis; type: functional, cell membranes; conditions: Membrane
Rattus norvegicus [2] = species on record: Rattus norvegicus; assay: Positive allosteric modulation of GABAB receptor in rat cortical membranes assessed as stimulation of [35S]GTPgammaS binding up to 100 uM after 30 mins by liquid scintillation counting analysis; type: functional, cell membranes; conditions: Membrane
Rattus norvegicus [3] = species on record: Rattus norvegicus; assay: Positive allosteric modulation of GABAB receptor in rat cortical membranes assessed as potentiation of GABA-induced [35S]GTPgammaS binding at 25 uM after 30 mins by liquid scintillation counting analysis relative to GABA; type: functional, cell membranes; conditions: Membrane
Rattus norvegicus [4] = species on record: Rattus norvegicus; assay: Positive allosteric modulation of GABAB receptor in rat cortical membranes assessed as potentiation of GABA-induced [35S]GTPgammaS binding at 2.5 uM after 30 mins by liquid scintillation counting analysis relative to GABA; type: functional, cell membranes; conditions: Membrane
NIH3T3 = assay: Cytotoxicity against mouse NIH/3T3 cells after 24 hrs by neutral red staining-based UV/visible spectrophotometric analysis; type: cell-based; conditions: NIH3T3, 24 h
Mus musculus [5] = assay: Hypnotic effect in DBA mouse assessed as increase in baclofen-induced duration of loss of righting reflex at 300 mg/kg, ig incubated for 30 mins prior to baclofen-challenge relative to vehicle-treated control; type: functional, organism-based; design: dose 300 mg/kg
Mus musculus [6] = assay: Hypnotic effect in DBA mouse assessed as reduction in baclofen-induced onset of loss of righting reflex over 10 mg/kg, ip incubated for 30 mins prior to baclofen-challenge relative to vehicle-treated control; type: functional, organism-based; design: dose 10 mg/kg
Mus musculus [7] = assay: Hypnotic effect in DBA mouse assessed as increase in baclofen-induced duration of loss of righting reflex at 100 to 300 mg/kg, ip incubated for 30 mins prior to baclofen-challenge relative to vehicle-treated control; type: functional, organism-based
Mus musculus [8] = assay: Hypnotic effect in DBA mouse assessed as potentiation of baclofen-induced loss of righting reflex at 300 mg/kg, ip incubated for 30 mins prior to baclofen-challenge; type: functional, organism-based; design: dose 300 mg/kg
Mus musculus [9] = assay: Hypnotic effect in DBA mouse assessed as potentiation of baclofen-induced loss of righting reflex at 100 mg/kg, ip incubated for 30 mins prior to baclofen-challenge; type: functional, organism-based; design: dose 100 mg/kg
Mus musculus [10] = assay: Hypnotic effect in ip dosed DBA mouse assessed as increase in baclofen-induced duration of loss of righting reflex incubated for 30 mins prior to baclofen-challenge; type: functional, organism-based
Mus musculus [11] = assay: Hypnotic effect in ip dosed DBA mouse assessed as reduction in baclofen-induced onset of loss of righting reflex incubated 30 mins prior to baclofen-challenge; type: functional, organism-based
Mus musculus [12] = assay: Hypnotic effect in DBA mouse assessed as potentiation of baclofen-induced loss of righting reflex at 30 mg/kg, ip incubated for 30 mins prior to baclofen-challenge; type: functional, organism-based; design: dose 30 mg/kg
Mus musculus [13] = assay: Hypnotic effect in DBA mouse assessed as potentiation of baclofen-induced loss of righting reflex at 10 mg/kg, ip incubated for 30 mins prior to baclofen-challenge; type: functional, organism-based; design: dose 10 mg/kg
Mus musculus [14] = assay: Hypnotic effect in DBA mouse assessed as potentiation of baclofen-induced loss of righting reflex at 3 mg/kg, ip incubated for 30 mins prior to baclofen-challenge; type: functional, organism-based; design: dose 3 mg/kg
Rattus norvegicus [15] = species on record: Rattus norvegicus; assay: Positive allosteric modulation of GABAB receptor in rat cortical membranes assessed as potentiation of GABA-induced [35S]GTPgammaS binding at 10 uM after 30 mins by liquid scintillation counting analysis relative to GABA; type: functional, cell membranes; conditions: Membrane
Mus musculus [16] = assay: Hypnotic effect in DBA mouse assessed as potentiation of baclofen-induced loss of righting reflex at 300 mg/kg, ig incubated for 30 mins prior to baclofen-challenge; type: functional, organism-based; design: dose 300 mg/kg
Mus musculus [17] = assay: Hypnotic effect in DBA mouse assessed as increase in pentobarbital-induced duration of loss of righting reflex at 300 mg/kg, ip incubated for 30 mins prior to pentobarbital-challenge; type: functional; conditions: route intraperitoneal
Mus musculus [18] = assay: Hypnotic effect in DBA mouse assessed as increase in pentobarbital-induced duration of loss of righting reflex at 100 mg/kg, ip incubated for 30 mins prior to pentobarbital-challenge; type: functional; conditions: route intraperitoneal
Mus musculus [19] = assay: Hypnotic effect in DBA mouse assessed as increase in pentobarbital-induced duration of loss of righting reflex at 30 mg/kg, ip incubated for 30 mins prior to pentobarbital-challenge; type: functional; conditions: route intraperitoneal
Mus musculus [20] = assay: Hypnotic effect in DBA mouse assessed as reduction in pentobarbital-induced onset of loss of righting reflex at 300 mg/kg, ip incubated for 30 mins prior to pentobarbital-challenge (reference value: 60.0 +/- 0.0 min); type: functional; conditions: route intraperitoneal
Mus musculus [21] = assay: Hypnotic effect in DBA mouse assessed as reduction in pentobarbital-induced onset of loss of righting reflex at 100 mg/kg, ip incubated for 30 mins prior to pentobarbital-challenge (reference value: 60.0 +/- 0.0 min); type: functional; conditions: route intraperitoneal
Mus musculus [22] = assay: Hypnotic effect in DBA mouse assessed as reduction in pentobarbital-induced onset of loss of righting reflex at 30 mg/kg, ip incubated for 30 mins prior to pentobarbital-challenge (reference value: 60.0 +/- 0.0 min); type: functional; conditions: route intraperitoneal
Mus musculus [23] = assay: Hypnotic effect in DBA mouse assessed as potentiation of pentobarbital-induced loss of righting reflex at 300 mg/kg, ip incubated for 30 mins prior to pentobarbital-challenge; type: functional, organism-based; design: dose 300 mg/kg
Mus musculus [24] = assay: Hypnotic effect in DBA mouse assessed as potentiation of pentobarbital-induced loss of righting reflex at 100 mg/kg, ip incubated for 30 mins prior to pentobarbital-challenge; type: functional, organism-based; design: dose 100 mg/kg
Mus musculus [25] = assay: Hypnotic effect in DBA mouse assessed as potentiation of pentobarbital-induced loss of righting reflex at 30 mg/kg, ip incubated for 30 mins prior to pentobarbital-challenge; type: functional, organism-based; design: dose 30 mg/kg
Mus musculus [26] = assay: Hypnotic effect in DBA mouse assessed as reduction in baclofen-induced onset of loss of righting reflex at 300 mg/kg, ig incubated for 30 mins prior to baclofen-challenge relative to vehicle-treated control; type: functional, organism-based; design: dose 300 mg/kg

With `CCc1c(C)sc(N(C)C(=O)c2ccc(Cl)cc2)c1C(=O)OC` the Activity (Rattus norvegicus [1]) was “inactive” and the Activity (Rattus norvegicus [2]) was “inactive”.

With `COC(=O)c1c(NC(=O)c2ccc(OC)c(OC)c2)sc2c1CCCC2` the Activity (Rattus norvegicus [1]) was “inactive”, the Activity (Rattus norvegicus [2]) was “inactive” and the Activity (Rattus norvegicus [3]) was 9%. The Activity (Rattus norvegicus [4]) was -4.1%.

For `CCc1c(C)sc(NC(=O)C2CC2)c1C(=O)OC`, the Activity (Rattus norvegicus [1]) was “inactive” and the Activity (Rattus norvegicus [2]) was “inactive”.

In the case of `CCc1c(C)sc(NC(=O)c2ccc(-c3ccc(C)cc3)cc2)c1C(=O)OC`, the Activity (Rattus norvegicus [1]) is reported as “inactive” and the Activity (Rattus norvegicus [2]) is reported as “inactive”.

In the case of `CCc1c(C)sc(NC(=O)c2ccc(OC)cc2)c1C(=O)OC`, the Activity (Rattus norvegicus [1]) is reported as “inactive” and the Activity (Rattus norvegicus [2]) is reported as “inactive”.

With `CCc1c(C)sc(NC(=O)C(C)(C)C)c1C(=O)OC` the Activity (Rattus norvegicus [1]) was “inactive” and the Activity (Rattus norvegicus [2]) was “inactive”.

Compound `CCc1c(C)sc(NC(=O)C23CC4CC(CC(C4)C2)C3)c1C(=O)OC` has an IC50 (NIH3T3) of 32 µM, an Activity (Rattus norvegicus [3]) of 22% and an Activity (Rattus norvegicus [4]) of 9.2%.

For `CCc1c(C)sc(NC(=O)Cc2ccccc2)c1C(=O)OC`, the Activity (Rattus norvegicus [1]) was “inactive” and the Activity (Rattus norvegicus [2]) was “inactive”.

`COC(=O)c1c(NC(=O)c2ccccc2)sc2c1CCCC2` was tested, and the Activity (Rattus norvegicus [1]) was “inactive” and the Activity (Rattus norvegicus [2]) was “inactive”.

`CCc1c(C)sc(NC(=O)c2ccc(-c3ccccc3)cc2)c1C(=O)OC` was tested, and the Activity (Rattus norvegicus [1]) was “inactive” and the Activity (Rattus norvegicus [2]) was “inactive”.

In the case of `CCc1c(C)sc(NS(=O)(=O)c2ccccc2)c1C(=O)OC`, the IC50 (NIH3T3) is reported as 146 µM, the Activity (Rattus norvegicus [1]) is reported as “inactive” and the Activity (Rattus norvegicus [2]) is reported as “inactive”. The Activity (Rattus norvegicus [3]) was 5.9% and the Activity (Rattus norvegicus [4]) was 2.9%.

With `CSc1nc(NC2CCCC2)c([N+](=O)[O-])c(NC2CCCC2)n1` [GS-39783] the Activity (Mus musculus [5]) was “Active”, the Activity (Mus musculus [6]) was “Active” and the Activity (Mus musculus [7]) was “Active”. For the same compound, the Activity (Mus musculus [8]) was “Active”, the Activity (Mus musculus [9]) was “Active” and the Activity (Mus musculus [10]) was “Dose-dependent effect”. For the same compound, the Activity (Mus musculus [11]) was “Dose-dependent effect”, the Activity (Mus musculus [12]) was “Active” and the Activity (Mus musculus [13]) was “Active”. The Activity (Mus musculus [14]) was “inactive”, the IC50 (NIH3T3) was 60 µM and the Activity (Rattus norvegicus [15]) was 59%. For the same compound, the Activity (Mus musculus [16]) was “Active”, the Time (Mus musculus [17]) was 2.3 min and the Time (Mus musculus [18]) was 0 min. The Time (Mus musculus [19]) was 0 min, the Time (Mus musculus [20]) was 57.3 min and the Time (Mus musculus [21]) was 60 min. The Time (Mus musculus [22]) was 60 min, the Activity (Mus musculus [23]) was “Active” and the Activity (Mus musculus [24]) was “inactive”. The Activity (Mus musculus [25]) was “inactive” and the Activity (Mus musculus [26]) was “Active”.

In the case of `CCc1c(C)sc(NC(=O)Oc2ccccc2)c1C(=O)OC`, the Activity (Rattus norvegicus [1]) is reported as “inactive”, the Activity (Rattus norvegicus [2]) is reported as “inactive” and the Activity (Rattus norvegicus [3]) is reported as 8.2%. It also gave an Activity (Rattus norvegicus [4]) of 3.9%.

In the case of `CCc1c(C)sc(NC(=O)c2ccc(Br)cc2)c1C(=O)OC`, the Activity (Rattus norvegicus [1]) is reported as “inactive” and the Activity (Rattus norvegicus [2]) is reported as “inactive”.

With `CCCOC(=O)c1c(NC(=O)c2ccc(C)cc2)sc(C)c1CC` the Activity (Rattus norvegicus [1]) was “inactive” and the Activity (Rattus norvegicus [2]) was “inactive”.

With `COc1ccc(C(=O)Nc2sc3c(c2C#N)CCCC3)cc1OC` the Activity (Rattus norvegicus [1]) was “inactive” and the Activity (Rattus norvegicus [2]) was “inactive”.

`CCc1c(C)sc(NC(=O)c2ccc(-c3cccnc3)cc2)c1C(=O)OC` was tested, and the Activity (Rattus norvegicus [1]) was “inactive” and the Activity (Rattus norvegicus [2]) was “inactive”.
